The values that follow come from US20130251644A1, “Cyclodextrin-Based Microemulsions, and Dermatological Uses Thereof” (PRECISION DERMATOLOGY, INC., priority 2012, published 2013).

Data set [1] in a line: Solubility/dispersibility of retinol in the Labrasol-HPGCD-water systems and in water. Format: physicochemical.
Text: Microemulsion preparation: Any two components (examples: Labrasol®-water, HPXCD-water, or Labrasol®-HPXCD) were mixed (in different ratios) in different scintillation vials and then the third component was titrated to each vial until a clear-to-turbid or turbid-to-clear transition occurred (in simple situations). Finally wt % percentages data for each component (Labrasol®, water, and cyclodextrin) were plotted to construct the ternary phase diagram.
Cyclodextrin used: hydroxypropyl-X-cyclodextrin (X=alpha, beta, or gamma).
Any two components (examples: Labrasol®-water, cyclodextrin-water, or Labrasol®-HPBCD) were mixed (in different ratios) in different scintillation vials and then the third component was titrated to each vial until a clear-to-turbid or turbid-to-clear transition occurred (in simple situations). Finally wt % percentages data for each component (Labrosol, water, and cyclodextrin) were plotted to construct the ternary phase diagram.
The conditions of data set [2]: cited from earlier work.

With `CC1=C(/C=C/C(C)=C/C=C/C(C)=C/CO)C(C)(C)CCC1` [solid retinol, Retinol], the “amount of retinol that can be incorporated into the cyclodextrin-based microemulsions” value in data set [1] (cyclodextrin-based microemulsion systems) is “greater than 1.0 wt %”. Further, the “miscibility in Labrasol®-HPGCD-water microemulsion system” value in data set [1] (final retinol concentration 1.2%, clear transparent system (vials 8 and 1, FIG. 4(b), 4(c))) is recorded as “complete miscibility”. In addition, the miscibility in water entry in data set [2] is “immiscible in water”.
